Here are results for four molecules from patent US20250185656A1, “PIPERIDINONE DERIVATIVE OR SALT THEREOF, HARMFUL ORGANISM CONTROL AGENT CONTAINING SAID COMPOUND, AND METHOD FOR USING SAME” (ADEKA Corporation, priority 2022, published 2025).

Structures are written as SMILES.

In one test the test system is Plutella xylostella. Kind of test: Insecticidal test against Plutella xylostella. As to conditions: in Brassica rapa, 144 h, read-out: corrected mortality, rating of assessment.
For test [1], the system named is Frankliniella occidentalis. Put plainly: Insecticidal test against Frankliniella occidentalis. As to conditions: in Phaseolus vulgaris, 96 h, read-out: corrected mortality, rating of assessment.
Text: Insecticidal Test Against Frankliniella occidentalis
Female adults of Frankliniella occidentalis were inoculated onto Phaseolus vulgaris leaf pieces, and after allowing them to lay eggs for one day, the female adults were removed. […] Four days after the treatment, the number of surviving larvae of this species was examined. […] In duplicate.
Test [2] has as its system L-1 stage larvae of Dirofilaria immitis. Put plainly: Evaluation test of influence on the movement of Dirofilaria immitis larvae. The settings on record: 72 h, read-out: corrected movement inhibition rate.

Text for Plutella xylostella: Insecticidal Test Against Plutella xylostella
Six days after the immersion in the drug solution, the number of surviving insects was examined. […] In triplicate using 10 per plot.

`CC(C)(C)OC(=O)N1CC(=O)C(C(=S)Nc2ccc(Cl)cc2)=C(O)C1` [Compound 2-13, tertiary-butyl 4-((4-chlorophenyl)carbamothioyl)-5-hydroxy-3-oxo-3,6-dihydropyridine-1 (2H)-carboxylate]: in the test with Plutella xylostella, the mortality at 500 ppm came out at 100%.

In the case of `O=C1CN(c2ncc(Br)cn2)CC(O)=C1C(=O)Nc1ccc(F)cc1` [Compound 1-65, 1-(5-bromopyrimidin-2-yl)-N-(4-fluorophenyl)-5-hydroxy-3-oxo-1,2,3,6-tetrahydropyridine-4-carboxamide], the mortality at 500 ppm (in test [1]; in the test on Plutella xylostella) was 100% each time.

For `CC(C)(C)OC(=O)N1CC(=O)C(C(=O)Nc2ccc(F)cc2)=C(O)C1` [Compound 1-36, tertiary-butyl 4-((4-fluorophenyl)carbamoyl)-5-hydroxy-3-oxo-3,6-dihydropyridine-1 (2H)-carboxylate], the inhibition at 50 ppm in test [2] was ≥ 50%. The mortality at 500 ppm (in test [1]; in the test with Plutella xylostella) was 100% throughout.

In the case of `N#Cc1ccc(N2CC(O)=C(C(=O)Nc3ccc(F)cc3)C(=O)O2)cc1` [Compound 3-1, 2-(4-cyanophenyl)-N-(4-fluorophenyl)-4-hydroxy-6-oxo-3,6-dihydro-2H-1,2-oxazin-5-carboxamide], the mortality at 500 ppm in the test on Plutella xylostella was determined as 100%.
